Experiments:
Conditions in all cases: Compound concentration 10 µM
[1] = target: Beta-1 adrenergic receptor (Homo sapiens) (UniProt P08588)
Description: PDSP Primary Binding target: ADRB1 - Compounds are tested at 10 uM concentration, plate are incubated at room temperature in the dark for 90 minutes. Reaction are stopped by vacuum filtration onto 0.3% polyethyleneimine soaked filter mats using Filtermate harvester. Scintilation cocktail is then melted onto microwave-dried filters on a hot plate and the radio activity is counted in Microbia counter.

[2] = target: D(1B) dopamine receptor (Homo sapiens) (UniProt P21918)
Description: PDSP Primary Binding target: DRD5 - Compounds are tested at 10 uM concentration, plate are incubated at room temperature in the dark for 90 minutes. Reaction are stopped by vacuum filtration onto 0.3% polyethyleneimine soaked filter mats using Filtermate harvester. Scintilation cocktail is then melted onto microwave-dried filters on a hot plate and the radio activity is counted in Microbia counter.

[3] = target: D(1A) dopamine receptor (Homo sapiens) (UniProt P21728)
Description: PDSP Primary Binding target: DRD1 - Compounds are tested at 10 uM concentration, plate are incubated at room temperature in the dark for 90 minutes. Reaction are stopped by vacuum filtration onto 0.3% polyethyleneimine soaked filter mats using Filtermate harvester. Scintilation cocktail is then melted onto microwave-dried filters on a hot plate and the radio activity is counted in Microbia counter.

[4] = target: 5-hydroxytryptamine receptor 6 (Homo sapiens) (UniProt P50406)
Description: PDSP Primary Binding target: HTR6 - Compounds are tested at 10 uM concentration, plate are incubated at room temperature in the dark for 90 minutes. Reaction are stopped by vacuum filtration onto 0.3% polyethyleneimine soaked filter mats using Filtermate harvester. Scintilation cocktail is then melted onto microwave-dried filters on a hot plate and the radio activity is counted in Microbia counter.

[5] = target: Histamine H3 receptor (Homo sapiens) (UniProt Q9Y5N1)
Description: PDSP Primary Binding target: HRH3 - Compounds are tested at 10 uM concentration, plate are incubated at room temperature in the dark for 90 minutes. Reaction are stopped by vacuum filtration onto 0.3% polyethyleneimine soaked filter mats using Filtermate harvester. Scintilation cocktail is then melted onto microwave-dried filters on a hot plate and the radio activity is counted in Microbia counter.

[6] = target: T1, Muscarinic acetylcholine receptor M4 (Homo sapiens) (UniProt P08173)
T1 sequence (whole entry): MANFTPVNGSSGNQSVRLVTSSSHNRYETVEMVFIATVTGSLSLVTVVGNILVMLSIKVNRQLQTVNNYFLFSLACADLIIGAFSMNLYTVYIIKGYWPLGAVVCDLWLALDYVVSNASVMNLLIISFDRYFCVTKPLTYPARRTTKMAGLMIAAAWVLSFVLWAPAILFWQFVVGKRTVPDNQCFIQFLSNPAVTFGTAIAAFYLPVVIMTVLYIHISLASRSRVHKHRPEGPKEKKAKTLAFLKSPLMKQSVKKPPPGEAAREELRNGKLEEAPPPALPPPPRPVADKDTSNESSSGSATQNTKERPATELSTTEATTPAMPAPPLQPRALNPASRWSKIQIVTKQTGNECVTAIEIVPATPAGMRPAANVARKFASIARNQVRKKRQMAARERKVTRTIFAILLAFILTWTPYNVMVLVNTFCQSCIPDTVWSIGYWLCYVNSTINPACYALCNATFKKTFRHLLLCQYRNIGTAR
Description: PDSP Primary Binding target: CHRM4 - Compounds are tested at 10 uM concentration, plate are incubated at room temperature in the dark for 90 minutes. Reaction are stopped by vacuum filtration onto 0.3% polyethyleneimine soaked filter mats using Filtermate harvester. Scintilation cocktail is then melted onto microwave-dried filters on a hot plate and the radio activity is counted in Microbia counter.

[7] = target: Mu-type opioid receptor (Homo sapiens) (UniProt P35372)
Mu-type opioid receptor (Homo sapiens), sequence (P35372 whole entry): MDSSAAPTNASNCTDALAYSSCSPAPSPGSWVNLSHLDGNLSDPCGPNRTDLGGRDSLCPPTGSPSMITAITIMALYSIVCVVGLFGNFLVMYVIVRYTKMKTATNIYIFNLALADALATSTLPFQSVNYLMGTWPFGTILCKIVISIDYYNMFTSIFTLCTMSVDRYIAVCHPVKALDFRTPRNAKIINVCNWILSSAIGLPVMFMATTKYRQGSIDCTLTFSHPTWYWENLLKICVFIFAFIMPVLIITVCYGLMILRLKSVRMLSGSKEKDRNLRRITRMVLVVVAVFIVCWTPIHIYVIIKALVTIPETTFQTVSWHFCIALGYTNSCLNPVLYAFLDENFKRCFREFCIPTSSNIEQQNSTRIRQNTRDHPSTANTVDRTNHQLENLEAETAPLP
Description: PDSP Primary Binding target: OPRM1 - Compounds are tested at 10 uM concentration, plate are incubated at room temperature in the dark for 90 minutes. Reaction are stopped by vacuum filtration onto 0.3% polyethyleneimine soaked filter mats using Filtermate harvester. Scintilation cocktail is then melted onto microwave-dried filters on a hot plate and the radio activity is counted in Microbia counter.

[8] = target: T2, Alpha-1B adrenergic receptor (Homo sapiens) (UniProt P35368)
T2 sequence (whole entry): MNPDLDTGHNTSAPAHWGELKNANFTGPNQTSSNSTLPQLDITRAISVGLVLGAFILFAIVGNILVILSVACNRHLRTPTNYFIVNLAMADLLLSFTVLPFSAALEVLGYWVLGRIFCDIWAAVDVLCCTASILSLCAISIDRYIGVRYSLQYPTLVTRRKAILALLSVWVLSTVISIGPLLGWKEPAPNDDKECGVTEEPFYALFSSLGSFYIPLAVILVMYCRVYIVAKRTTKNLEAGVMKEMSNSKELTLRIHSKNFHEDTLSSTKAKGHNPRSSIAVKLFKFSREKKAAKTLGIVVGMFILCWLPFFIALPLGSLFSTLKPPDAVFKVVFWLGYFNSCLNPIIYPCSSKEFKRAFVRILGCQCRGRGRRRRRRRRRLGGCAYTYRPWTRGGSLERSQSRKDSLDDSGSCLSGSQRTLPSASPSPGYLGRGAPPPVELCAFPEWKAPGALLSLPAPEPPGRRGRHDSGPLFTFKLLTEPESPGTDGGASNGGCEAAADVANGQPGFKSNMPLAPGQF
Description: PDSP Primary Binding target: ADRA1B - Compounds are tested at 10 uM concentration, plate are incubated at room temperature in the dark for 90 minutes. Reaction are stopped by vacuum filtration onto 0.3% polyethyleneimine soaked filter mats using Filtermate harvester. Scintilation cocktail is then melted onto microwave-dried filters on a hot plate and the radio activity is counted in Microbia counter.

[9] = target: Muscarinic acetylcholine receptor M3 (Homo sapiens) (UniProt P20309)
Muscarinic acetylcholine receptor M3 (Homo sapiens), sequence (P20309 whole entry, looked up): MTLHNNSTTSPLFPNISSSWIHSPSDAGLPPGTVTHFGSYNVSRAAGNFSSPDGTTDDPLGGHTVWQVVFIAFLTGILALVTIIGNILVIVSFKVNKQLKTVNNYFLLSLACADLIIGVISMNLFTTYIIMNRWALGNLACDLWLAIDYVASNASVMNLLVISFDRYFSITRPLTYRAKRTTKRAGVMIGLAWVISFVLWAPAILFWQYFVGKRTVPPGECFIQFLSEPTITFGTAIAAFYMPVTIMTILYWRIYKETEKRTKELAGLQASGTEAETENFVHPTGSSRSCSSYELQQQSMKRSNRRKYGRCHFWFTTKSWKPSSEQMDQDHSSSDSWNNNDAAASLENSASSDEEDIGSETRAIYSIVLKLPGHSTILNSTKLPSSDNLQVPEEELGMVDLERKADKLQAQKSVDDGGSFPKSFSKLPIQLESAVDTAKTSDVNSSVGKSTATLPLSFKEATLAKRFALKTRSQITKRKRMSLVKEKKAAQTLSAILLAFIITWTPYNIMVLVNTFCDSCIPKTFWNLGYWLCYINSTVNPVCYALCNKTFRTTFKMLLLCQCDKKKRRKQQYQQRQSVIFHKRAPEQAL
Description: PDSP Primary Binding target: CHRM3 - Compounds are tested at 10 uM concentration, plate are incubated at room temperature in the dark for 90 minutes. Reaction are stopped by vacuum filtration onto 0.3% polyethyleneimine soaked filter mats using Filtermate harvester. Scintilation cocktail is then melted onto microwave-dried filters on a hot plate and the radio activity is counted in Microbia counter.

[10] = target: Sodium-dependent serotonin transporter (Homo sapiens) (UniProt P31645)
Sodium-dependent serotonin transporter (Homo sapiens), sequence (P31645 whole entry, looked up): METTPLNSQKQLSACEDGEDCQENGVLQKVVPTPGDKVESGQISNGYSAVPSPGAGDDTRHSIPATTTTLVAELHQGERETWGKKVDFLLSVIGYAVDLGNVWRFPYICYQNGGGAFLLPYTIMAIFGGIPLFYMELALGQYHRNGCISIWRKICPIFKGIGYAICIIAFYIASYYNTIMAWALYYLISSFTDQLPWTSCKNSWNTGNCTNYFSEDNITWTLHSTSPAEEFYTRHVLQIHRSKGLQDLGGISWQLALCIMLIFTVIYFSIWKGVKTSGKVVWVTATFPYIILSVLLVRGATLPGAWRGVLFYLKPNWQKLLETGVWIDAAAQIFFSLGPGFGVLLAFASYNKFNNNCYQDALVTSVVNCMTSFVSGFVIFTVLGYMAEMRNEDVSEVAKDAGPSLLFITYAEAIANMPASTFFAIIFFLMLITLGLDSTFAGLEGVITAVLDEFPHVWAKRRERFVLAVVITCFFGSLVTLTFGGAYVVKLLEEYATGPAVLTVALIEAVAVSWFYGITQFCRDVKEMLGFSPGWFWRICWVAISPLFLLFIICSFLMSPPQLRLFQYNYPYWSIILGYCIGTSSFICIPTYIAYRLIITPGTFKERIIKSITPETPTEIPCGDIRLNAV
Description: PDSP Primary Binding target: SLC6A4 - Compounds are tested at 10 uM concentration, plate are incubated at room temperature in the dark for 90 minutes. Reaction are stopped by vacuum filtration onto 0.3% polyethyleneimine soaked filter mats using Filtermate harvester. Scintilation cocktail is then melted onto microwave-dried filters on a hot plate and the radio activity is counted in Microbia counter.

[11] = target: D(2) dopamine receptor (Homo sapiens) (UniProt P14416)
D(2) dopamine receptor (Homo sapiens), sequence (P14416 whole entry): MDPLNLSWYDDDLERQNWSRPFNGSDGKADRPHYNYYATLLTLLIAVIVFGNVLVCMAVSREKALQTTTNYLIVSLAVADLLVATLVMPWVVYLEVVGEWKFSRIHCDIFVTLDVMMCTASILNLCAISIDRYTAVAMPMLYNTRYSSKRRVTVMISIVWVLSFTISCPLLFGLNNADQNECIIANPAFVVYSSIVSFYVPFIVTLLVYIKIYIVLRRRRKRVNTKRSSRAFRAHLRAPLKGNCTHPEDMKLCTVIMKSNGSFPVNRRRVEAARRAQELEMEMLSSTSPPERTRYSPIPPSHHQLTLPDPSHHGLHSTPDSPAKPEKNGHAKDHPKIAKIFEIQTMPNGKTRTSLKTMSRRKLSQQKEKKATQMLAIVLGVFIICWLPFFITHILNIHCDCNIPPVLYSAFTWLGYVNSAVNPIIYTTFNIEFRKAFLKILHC
Description: PDSP Primary Binding target: DRD2 - Compounds are tested at 10 uM concentration, plate are incubated at room temperature in the dark for 90 minutes. Reaction are stopped by vacuum filtration onto 0.3% polyethyleneimine soaked filter mats using Filtermate harvester. Scintilation cocktail is then melted onto microwave-dried filters on a hot plate and the radio activity is counted in Microbia counter.

[12] = target: T3, 5-hydroxytryptamine receptor 1A (Homo sapiens) (UniProt P08908)
T3 sequence (whole entry): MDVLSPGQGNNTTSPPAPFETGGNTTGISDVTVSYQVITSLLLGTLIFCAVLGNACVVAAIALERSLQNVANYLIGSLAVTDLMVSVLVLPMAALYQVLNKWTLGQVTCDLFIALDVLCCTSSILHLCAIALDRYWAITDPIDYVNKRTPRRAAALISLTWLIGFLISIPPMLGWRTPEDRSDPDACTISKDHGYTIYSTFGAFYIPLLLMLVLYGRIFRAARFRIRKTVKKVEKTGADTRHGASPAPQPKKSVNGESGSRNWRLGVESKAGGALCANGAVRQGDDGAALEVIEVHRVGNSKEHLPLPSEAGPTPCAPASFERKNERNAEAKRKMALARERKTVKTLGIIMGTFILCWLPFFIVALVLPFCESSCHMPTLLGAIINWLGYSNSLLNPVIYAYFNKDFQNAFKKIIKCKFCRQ
Description: PDSP Primary Binding target: HTR1A - Compounds are tested at 10 uM concentration, plate are incubated at room temperature in the dark for 90 minutes. Reaction are stopped by vacuum filtration onto 0.3% polyethyleneimine soaked filter mats using Filtermate harvester. Scintilation cocktail is then melted onto microwave-dried filters on a hot plate and the radio activity is counted in Microbia counter.

[13] = target: T4, Alpha-2B adrenergic receptor (Homo sapiens) (UniProt P18089)
T4 sequence (whole entry): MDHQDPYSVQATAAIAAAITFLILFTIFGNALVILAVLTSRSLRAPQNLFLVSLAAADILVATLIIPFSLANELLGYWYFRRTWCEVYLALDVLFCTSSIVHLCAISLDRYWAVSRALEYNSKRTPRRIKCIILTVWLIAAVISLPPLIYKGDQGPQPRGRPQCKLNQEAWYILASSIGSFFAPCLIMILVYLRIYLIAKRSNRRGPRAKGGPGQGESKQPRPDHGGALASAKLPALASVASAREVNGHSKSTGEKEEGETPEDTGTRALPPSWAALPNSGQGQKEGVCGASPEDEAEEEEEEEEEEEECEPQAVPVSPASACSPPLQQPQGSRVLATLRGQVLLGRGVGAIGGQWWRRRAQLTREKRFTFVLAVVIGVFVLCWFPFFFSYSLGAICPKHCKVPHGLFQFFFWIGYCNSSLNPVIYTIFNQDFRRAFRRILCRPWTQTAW
Description: PDSP Primary Binding target: ADRA2B - Compounds are tested at 10 uM concentration, plate are incubated at room temperature in the dark for 90 minutes. Reaction are stopped by vacuum filtration onto 0.3% polyethyleneimine soaked filter mats using Filtermate harvester. Scintilation cocktail is then melted onto microwave-dried filters on a hot plate and the radio activity is counted in Microbia counter.

[14] = target: T5, Alpha-1A adrenergic receptor (Homo sapiens) (UniProt P35348)
T5 sequence (whole entry): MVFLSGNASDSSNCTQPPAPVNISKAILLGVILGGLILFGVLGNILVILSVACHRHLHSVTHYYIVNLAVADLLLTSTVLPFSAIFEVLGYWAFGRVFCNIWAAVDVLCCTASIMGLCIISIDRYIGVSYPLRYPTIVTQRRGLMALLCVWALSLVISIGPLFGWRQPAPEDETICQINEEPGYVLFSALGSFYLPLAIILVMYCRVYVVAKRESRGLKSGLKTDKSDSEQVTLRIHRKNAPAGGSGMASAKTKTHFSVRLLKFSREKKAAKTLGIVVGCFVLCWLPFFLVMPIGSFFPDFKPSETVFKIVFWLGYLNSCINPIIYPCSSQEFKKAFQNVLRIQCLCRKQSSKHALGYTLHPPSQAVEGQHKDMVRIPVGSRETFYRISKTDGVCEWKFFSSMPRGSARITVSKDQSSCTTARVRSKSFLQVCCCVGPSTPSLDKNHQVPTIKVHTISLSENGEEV
Description: PDSP Primary Binding target: ADRA1A - Compounds are tested at 10 uM concentration, plate are incubated at room temperature in the dark for 90 minutes. Reaction are stopped by vacuum filtration onto 0.3% polyethyleneimine soaked filter mats using Filtermate harvester. Scintilation cocktail is then melted onto microwave-dried filters on a hot plate and the radio activity is counted in Microbia counter.

D(1B) dopamine receptor (Homo sapiens), sequence (P21918 whole entry): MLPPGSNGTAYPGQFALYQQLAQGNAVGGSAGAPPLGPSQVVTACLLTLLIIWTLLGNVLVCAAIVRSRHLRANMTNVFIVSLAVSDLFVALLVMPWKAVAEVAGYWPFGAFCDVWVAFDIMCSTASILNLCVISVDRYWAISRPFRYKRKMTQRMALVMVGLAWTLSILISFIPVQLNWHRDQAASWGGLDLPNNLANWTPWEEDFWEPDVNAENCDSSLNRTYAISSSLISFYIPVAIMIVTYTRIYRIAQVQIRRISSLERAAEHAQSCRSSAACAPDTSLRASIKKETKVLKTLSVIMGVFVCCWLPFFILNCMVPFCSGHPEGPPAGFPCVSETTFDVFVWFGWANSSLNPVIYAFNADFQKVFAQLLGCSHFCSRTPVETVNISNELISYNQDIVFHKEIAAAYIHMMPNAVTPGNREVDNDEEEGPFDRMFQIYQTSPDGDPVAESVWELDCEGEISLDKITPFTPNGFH
5-hydroxytryptamine receptor 6 (Homo sapiens), sequence (P50406 whole entry): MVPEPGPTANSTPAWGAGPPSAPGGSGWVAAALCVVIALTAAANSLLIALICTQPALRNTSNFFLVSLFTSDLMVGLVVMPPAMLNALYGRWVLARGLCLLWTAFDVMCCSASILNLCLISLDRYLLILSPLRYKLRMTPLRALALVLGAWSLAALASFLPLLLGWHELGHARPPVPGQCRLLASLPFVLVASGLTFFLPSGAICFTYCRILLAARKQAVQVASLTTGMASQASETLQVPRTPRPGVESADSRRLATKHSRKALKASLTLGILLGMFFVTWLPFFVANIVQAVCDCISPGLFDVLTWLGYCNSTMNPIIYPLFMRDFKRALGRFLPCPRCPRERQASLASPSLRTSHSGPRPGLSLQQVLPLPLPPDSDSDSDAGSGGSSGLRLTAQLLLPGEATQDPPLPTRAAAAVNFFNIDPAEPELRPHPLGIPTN
Histamine H3 receptor (Homo sapiens), sequence (Q9Y5N1 whole entry): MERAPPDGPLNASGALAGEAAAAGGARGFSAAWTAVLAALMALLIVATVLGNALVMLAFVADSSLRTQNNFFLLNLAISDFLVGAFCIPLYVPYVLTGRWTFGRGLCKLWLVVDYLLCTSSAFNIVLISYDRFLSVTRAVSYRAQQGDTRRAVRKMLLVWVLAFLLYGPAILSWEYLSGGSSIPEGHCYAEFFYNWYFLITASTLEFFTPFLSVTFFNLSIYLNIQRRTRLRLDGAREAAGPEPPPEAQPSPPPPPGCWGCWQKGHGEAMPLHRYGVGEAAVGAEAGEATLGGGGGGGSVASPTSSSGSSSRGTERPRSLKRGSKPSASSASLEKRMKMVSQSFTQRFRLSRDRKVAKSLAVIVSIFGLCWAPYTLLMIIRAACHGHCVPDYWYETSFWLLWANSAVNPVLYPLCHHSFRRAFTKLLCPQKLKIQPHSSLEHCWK
D(1A) dopamine receptor (Homo sapiens), sequence (P21728 whole entry): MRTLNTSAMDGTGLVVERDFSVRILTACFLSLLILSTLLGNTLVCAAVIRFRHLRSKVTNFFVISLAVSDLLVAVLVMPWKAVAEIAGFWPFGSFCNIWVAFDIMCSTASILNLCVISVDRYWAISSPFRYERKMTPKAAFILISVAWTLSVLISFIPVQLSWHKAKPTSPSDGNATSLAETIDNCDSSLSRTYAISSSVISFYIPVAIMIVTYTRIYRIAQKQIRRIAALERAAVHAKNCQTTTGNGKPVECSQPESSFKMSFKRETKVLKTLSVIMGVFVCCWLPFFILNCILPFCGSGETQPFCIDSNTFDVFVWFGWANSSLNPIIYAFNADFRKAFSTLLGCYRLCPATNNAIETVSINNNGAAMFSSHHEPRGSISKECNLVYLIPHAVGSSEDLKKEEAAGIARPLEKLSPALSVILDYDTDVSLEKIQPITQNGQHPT
Beta-1 adrenergic receptor (Homo sapiens), sequence (P08588 whole entry, looked up): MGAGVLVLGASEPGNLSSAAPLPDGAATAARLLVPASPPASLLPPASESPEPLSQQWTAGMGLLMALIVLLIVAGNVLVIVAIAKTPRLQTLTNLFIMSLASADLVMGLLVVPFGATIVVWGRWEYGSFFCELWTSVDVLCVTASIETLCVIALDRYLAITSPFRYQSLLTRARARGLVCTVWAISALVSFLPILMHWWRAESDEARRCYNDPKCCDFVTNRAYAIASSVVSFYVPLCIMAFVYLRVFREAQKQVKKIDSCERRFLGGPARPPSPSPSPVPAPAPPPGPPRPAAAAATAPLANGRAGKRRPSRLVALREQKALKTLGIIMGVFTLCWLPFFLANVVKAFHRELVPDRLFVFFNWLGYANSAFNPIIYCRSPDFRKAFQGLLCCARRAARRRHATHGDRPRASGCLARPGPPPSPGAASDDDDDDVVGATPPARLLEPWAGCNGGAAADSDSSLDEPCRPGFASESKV

Row | Structure (SMILES) | inhibition [1] [%] | inhibition [2] [%] | inhibition [3] [%] | inhibition [4] [%] | inhibition [5] [%] | inhibition [6] [%] | inhibition [7] [%] | inhibition [8] [%] | inhibition [9] [%] | inhibition [10] [%] | inhibition [11] [%] | inhibition [12] [%] | inhibition [13] [%] | inhibition [14] [%]
1 | O=C(O)c1cc(-c2ccc(C3CCNCC3)cc2)c2ccc(-c3ccc(C(F)(F)F)cc3)cc2c1 | 47 | 81 | 27 | 11.3 | 10.6 | -1.1 | 26.5 | 38.4 | 1.23 | 4.44 | 11.9 | 51.4 | 40.4 | 
2 | c1nc(CC2CCNCC2)c[nH]1 | -4.6 | 5.35 | 24.2 | 18.8 | 95.9 | -0.76 | -6.55 | 15.3 | 6.47 | 1.26 | 27.8 | -10 | 23 | -4.11
3 | NCCc1cn(S(=O)(=O)c2c(Cl)nc3sccn23)c2ccccc12 | 44.4 | 38.9 | 41.2 | 99.3 | 55.7 | 16.1 | 16.8 | 51.4 | 25.2 | 40.4 | 42.1 | 16.6 | 47.2 | 57.5
4 | CCCCCCCCCCCCC/C=C/[C@@H](O)[C@@H](N)COP(=O)(O)O | 0.96 | 22.7 | 2.88 | 3.57 | 6.7 | -2.5 | 30.4 | -1.45 | 9.29 | -0.47 | 10.6 | -8.27 | -1.62 | 
5 | CN1CCC(C(=O)c2cccc(NC(=O)c3c(F)cc(F)cc3F)n2)CC1 | -2.95 | 73.7 | 15.1 | 11.4 | 3.79 | 27 | 10.5 | 8.88 | 43.5 | 10.4 | 26.2 | 4.22 | 20.8 | 17.6
6 | NC(=O)[C@@H]1CCCN1C(=O)[C@H](Cc1c[nH]cn1)NC(=O)[C@@H]1CCC(=O)N1 | -1.74 | 0.19 | -1.35 | 10.6 | 10.9 | -2.83 | 45.1 | -3.89 | 0.84 | 5.26 | -4.39 |  | 14 | -7.07
7 | CN(C)C(=O)N[C@H]1CC[C@H](CCN2CCN(c3cccc(Cl)c3Cl)CC2)CC1 | 92.4 | -0.02 | 36.3 | 69.7 | 4.23 | 64 | 4.29 | 83.4 | 27.8 | 55 | 100 | 102 | 90.6 | 89.1
8 | Cc1c(P(=S)(c2ccccc2)c2ccccc2)n2ccccc2[n+]1C/C=C/c1ccccc1 | 36.1 | 24.6 | 16.3 | 43.6 | 15 | 68.4 | 87.3 | 39.9 | 71 | 29.7 | 49 | 54.3 | 45.7 | 28.7
9 | Cc1cc(NC(=O)NCCN2CCC(O)(Cc3ccccc3)CC2)c2ccccc2n1 | 25.5 | 41.9 | 10.7 | 8.02 | 31 | 17.1 | 43.3 | 26.1 | 24.4 | 66.3 | 65.3 | -6.82 | 29.6 | 23.9

From ChEMBL document CHEMBL5442219
